According to patent US20090318485A1, “NOVEL INHIBITORS OF RHO KINASE” (KALYPSYS, INC., priority 2006, published 2009):

What was measured:
[1] = biological target: T1, recombinant N-terminal GST-tagged human Rho kinase 1 (ROCK1, amino acids 1-535) (Homo sapiens, UniProt Q13464); assay: In vitro Rho kinase assay (luciferase-based ATP consumption), ROCK1; type: biochemical; conditions: 3 μM ATP, S6 peptide substrate, 30° C. for 2 hours; read-out: ROCK 1 IC50
T1 construct: human Rho kinase 1 (ROCK1, amino acids 1-535, Invitrogen Inc); purchased Invitrogen Inc. PV-3691
T1 sequence (Q13464 1-535): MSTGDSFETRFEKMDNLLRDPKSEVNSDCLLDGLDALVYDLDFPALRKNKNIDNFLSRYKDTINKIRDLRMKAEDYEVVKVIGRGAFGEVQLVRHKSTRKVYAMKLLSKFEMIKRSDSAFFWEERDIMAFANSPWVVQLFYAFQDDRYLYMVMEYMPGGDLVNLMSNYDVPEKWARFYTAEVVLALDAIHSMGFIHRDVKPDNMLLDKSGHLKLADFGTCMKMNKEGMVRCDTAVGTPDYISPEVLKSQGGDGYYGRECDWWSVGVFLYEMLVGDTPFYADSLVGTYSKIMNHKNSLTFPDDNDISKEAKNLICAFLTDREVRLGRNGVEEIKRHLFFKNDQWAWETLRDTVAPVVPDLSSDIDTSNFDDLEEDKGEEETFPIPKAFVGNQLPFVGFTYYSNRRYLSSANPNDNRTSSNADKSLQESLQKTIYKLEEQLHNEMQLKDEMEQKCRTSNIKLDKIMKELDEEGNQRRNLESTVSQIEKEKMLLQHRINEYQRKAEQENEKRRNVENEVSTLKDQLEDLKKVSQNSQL
Protocol: (§1) In Vitro Rho Kinase Assay
(§2) Rho kinase biochemical assays described below depend on firefly luciferase-based, indirect measurement of total ATP consumption by the kinase following incubation with substrate and ATP. […] The plate is centrifuged for 30 seconds at approximately 200×g. 240 nl of test compound in DMSO is dispensed to each well by passive pin transfer. The lag phase of this in vitro kinase reaction permits addition of compounds soon after the reaction initiates. The reaction is allowed to incubate at 30° C. for 2 hours. The assay plates are sealed and maintained in a humidified environment. […] After an additional 10 minute incubation at room temperature (about 22° C.), luminescence activity is measured on a Molecular Devices Analyst multi-mode plate reader or other suitable plate reader. Kinase inhibition results in less ATP consumption, and therefore increased luminescence signal. Negative control activity is measured with DMSO lacking any test compound. The positive control is 2-methyl-1-(4-methylisoquinolin-5-ylsulfonyl)perhydro-1,4-diazepine hydrochloride (aka H-1152P, HCl salt). Efficacy is measured as a percentage of positive control activity.

[2] = biological target: T2, recombinant N-terminal GST-tagged human Rho kinase 2 (ROCK2, amino acids 1-552) (Homo sapiens, UniProt O75116); assay: In vitro Rho kinase assay (luciferase-based ATP consumption), ROCK2; type: biochemical; conditions: 3 μM ATP, S6 peptide substrate, 30° C. for 2 hours; read-out: ROCK 2 IC50
T2 construct: human Rho kinase 2 (ROCK2, amino acids 1-552, Invitrogen Inc); purchased Invitrogen Inc. PV3759
T2 sequence (O75116 1-552): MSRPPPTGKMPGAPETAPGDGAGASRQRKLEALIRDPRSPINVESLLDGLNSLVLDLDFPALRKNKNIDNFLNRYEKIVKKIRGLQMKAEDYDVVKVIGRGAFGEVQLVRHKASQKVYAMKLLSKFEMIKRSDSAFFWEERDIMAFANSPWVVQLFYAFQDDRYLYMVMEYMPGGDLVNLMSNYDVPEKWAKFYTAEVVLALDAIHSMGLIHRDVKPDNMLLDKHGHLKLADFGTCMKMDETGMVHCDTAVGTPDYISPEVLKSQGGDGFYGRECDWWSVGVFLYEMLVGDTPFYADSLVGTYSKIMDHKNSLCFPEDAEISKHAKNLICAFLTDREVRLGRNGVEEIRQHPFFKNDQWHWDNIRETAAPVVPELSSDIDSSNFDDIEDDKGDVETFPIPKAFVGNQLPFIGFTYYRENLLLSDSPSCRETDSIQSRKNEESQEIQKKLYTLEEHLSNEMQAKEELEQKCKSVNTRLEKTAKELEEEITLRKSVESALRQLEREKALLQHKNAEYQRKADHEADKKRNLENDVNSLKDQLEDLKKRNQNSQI
Protocol: as §1, §2

| Structure (SMILES) | IC50 [1] [µM] | IC50 [2] [µM] |
| --- | --- | --- |
| C=CCc1cccc2cc(C(N)=O)c(=N)oc12 [Example 1] | ≤ 5 | ≤ 5 |
| CC(OC(=O)c1ccc(O)cc1)C(=O)Nc1ccc(Cl)c(Cl)c1 (stereo not drawn) [Example 8] | ≤ 5 | ≤ 5 |
| C=CCN(CC=C)S(=O)(=O)c1ccc2nc(N)sc2c1 [Example 9] | ≤ 5 | ≤ 5 |
| Clc1ccc(Cn2cc(-c3ccncc3)cn2)c(Cl)c1 [Example 15] | ≤ 5 | ≤ 5 |
| CC(CCc1ccc(O)cc1)Nc1ccc2[nH]ncc2c1 (stereo not drawn) [Example 7] | ≤ 5 | > 5 |
| CC1CCC(C(=O)NC(C(=O)Nc2ccncc2)C(C)C)CC1 (stereo not drawn) [Example 13] | ≤ 5 | ≤ 5 |
| CN(C)CCN(Cc1ccccc1)Cc1cc(-c2ccnc3cc(Cl)ccc23)ccc1O [Example 4] | > 5 | ≤ 5 |
| O=C1NC(=Cc2ccc(O)c(Br)c2)C(=O)N1Cc1ccccc1F [Example 11] | ≤ 5 | ≤ 5 |
| CCOC(=O)c1nnn(-c2nonc2N)c1-c1ccccc1Cl [Example 12] | > 5 | > 5 |
| Cc1cc(C)c2c(N)c(C(N)=O)sc2n1 [Example 2] | ≤ 5 | ≤ 5 |
| CSc1nc(-c2ccncc2)nc(N)c1C#N [Example 5] | ≤ 5 | ≤ 5 |
| CC(C)c1cc2cc(/C=C/C(=O)O)c(O)cc2o1 [Example 3] | ≤ 5 | ≤ 5 |
| Cc1cc(=O)oc2cc(OC(C)C(=O)Nc3nccs3)ccc12 (stereo not drawn) [Example 10] | > 5 |  |
| CC(C)(CO)CNc1nc(-c2ccncc2)cnc1N [Example 6] | ≤ 5 | ≤ 5 |
